According to paper PMC11491004, “CHF6523 data suggest that the phosphoinositide 3-kinase delta isoform is not a suitable target for the management of COPD” (Respiratory Research, 2024):

Assay: Forced oscillation and slow vital capacity manoeuvres
Assay type: in vivo, human
Conditions: Day 28
Protocol: All assessment timings were based on the morning dose. Pre-dose on Days 1 and 28 of each treatment period, blood samples were taken for pharmacokinetic analyses, followed by forced oscillation (including slow vital capacity manoeuvres for inspiratory capacity [IC] and vital capacity [VC]), spirometry (forced expiratory volume in 1 s [FEV1] and forced vital capacity [FVC]), and the COPD Assessment Test (CAT). Blood samples were also taken up to 12 h post-dose on Days 1 and 28 for pharmacokinetic analyses, with blood samples for biomarker assessment pre-dose on Day 1 and 2 h post-dose on Day 28, and spirometry pre-dose on Days 20 and 24. Sputum was induced prior to each treatment period for baseline determination of biomarkers, and post-dose on Day 20 for collection of phosphatidylinositol (3,4,5)-trisphosphate (PIP3), and on Days 24 and 28 for collection of biomarkers.
Fold-change from baseline in cell counts, target biomarkers in sputum and blood, and PIP3 were log-transformed and analysed using an analysis of covariance (ANCOVA) model, with treatment, patient, and period as fixed effects, and baseline value as covariate. Changes from baseline in spirometry, forced oscillation and CAT endpoints were analysed using a similar ANCOVA model, but without log transformation. Rescue medication data were analysed using an analysis of variance model, including treatment, period and patient as fixed effects. Other data, including the proportion of days on which patients coughed and the cough VAS results, are presented descriptively only. Further details, including the transcriptomics, mass-spectrometry and Olink proteomics, bioinformatics and multi-omic data integration are in the supplement.
The Resmon PRO FULL device (MGC Diagnostics/Medisoft, St Paul, MN, USA) was used to evaluate the forced oscillometry endpoints. Patients in a sitting position and with their nose clipped supported their cheeks to reduce upper airway shunting while small amplitude pressure stimuli were applied during tidal breathing, with each manoeuvre performed in triplicate. The response of the respiratory system to this stimulation was used to derive respiratory mechanical impedance (Zrs), which comprises resistance (Rrs) and reactance (Xrs). In addition, the small amplitude pressure stimuli was also applied during execution of an expiratory slow vital capacity manoeuvre (SVC) to record inspiratory capacity (IC) and vital capacity (VC).
Central and peripheral airway mechanics were measured using a multi frequency stimulating waveform at 5, 11, and 19 Hz, to derive the following: […]

Question: Which results are given for `C[C@@H](c1oc(=O)c2ccccc2c1-c1cccc(CN2CCN(C)CC2)c1)n1nc(-c2cncc(O)c2)c2c(N)ncnc21` [CHF6523]?
Answer: Breaths where expiratory flow limitation was present, adjusted mean change from baseline (95% CI): 4.960 (–2.008, 11.928) %; Breaths where expiratory flow limitation was present, adjusted mean difference CHF6523 vs placebo (95% CI): 6.482 (–3.182, 16.145); p=0.179%; Inspiratory capacity, adjusted mean change from baseline (95% CI): –0.175 (–0.264, –0.085) (N=26) L; Inspiratory capacity, adjusted mean difference CHF6523 vs placebo (95% CI): –0.062 (–0.191, 0.066); p=0.320 L; Mean inspiratory flow, adjusted mean change from baseline (95% CI): 0.023 (0.006, 0.041) L/sec; Reactance at 5 Hz, expiratory, adjusted mean change from baseline (95% CI): –0.336 (–0.801, 0.130) cmH2O/L/sec; Reactance at 5 Hz, expiratory, adjusted mean difference CHF6523 vs placebo (95% CI): –0.284 (–0.919, 0.351); p=0.365 cmH2O/L/sec; Reactance at 5 Hz, inspiratory, adjusted mean change from baseline (95% CI): –0.119 (–0.307, 0.068) cmH2O/L/sec; Reactance at 5 Hz, inspiratory, adjusted mean difference CHF6523 vs placebo (95% CI): –0.141 (–0.399, 0.117); p=0.272 cmH2O/L/sec; Reactance at 5 Hz, total, adjusted mean change from baseline (95% CI): –0.263 (–0.623, 0.097) cmH2O/L/sec; Reactance at 5 Hz, total, adjusted mean difference CHF6523 vs placebo (95% CI): –0.237 (–0.729, 0.256); p=0.332 cmH2O/L/sec; Reactance at 19 Hz, expiratory, adjusted mean change from baseline (95% CI): –0.025 (–0.226, 0.177) cmH2O/L/sec; Reactance at 19 Hz, expiratory, adjusted mean difference CHF6523 vs placebo (95% CI): 0.079 (–0.198, 0.357); p=0.563 cmH2O/L/sec; Reactance at 19 Hz, inspiratory, adjusted mean change from baseline (95% CI): –0.113 (–0.257, 0.031) cmH2O/L/sec; Reactance at 19 Hz, inspiratory, adjusted mean difference CHF6523 vs placebo (95% CI): –0.072 (–0.270, 0.127); p=0.464 cmH2O/L/sec; Reactance at 19 Hz, total, adjusted mean change from baseline (95% CI): –0.058 (–0.229, 0.112) cmH2O/L/sec; Reactance at 19 Hz, total, adjusted mean difference CHF6523 vs placebo (95% CI): 0.027 (–0.208, 0.262); p=0.814 cmH2O/L/sec; Resistance at 5 Hz minus resistance at 19 Hz, expiratory, adjusted mean change from baseline (95% CI): 0.112 (–0.080, 0.305) cmH2O/L/sec; Resistance at 5 Hz minus resistance at 19 Hz, expiratory, adjusted mean difference CHF6523 vs placebo (95% CI): –0.112 (–0.377, 0.153); p=0.392 cmH2O/L/sec; Resistance at 5 Hz minus resistance at 19 Hz, inspiratory, adjusted mean change from baseline (95% CI): 0.198 (0.075, 0.321) cmH2O/L/sec; Resistance at 5 Hz minus resistance at 19 Hz, inspiratory, adjusted mean difference CHF6523 vs placebo (95% CI): 0.147 (–0.022, 0.317); p=0.085 cmH2O/L/sec; Resistance at 5 Hz minus resistance at 19 Hz, total, adjusted mean change from baseline (95% CI): 0.158 (0.018, 0.299) cmH2O/L/sec; Resistance at 5 Hz minus resistance at 19 Hz, total, adjusted mean difference CHF6523 vs placebo (95% CI): –0.008 (–0.203, 0.186); p=0.929 cmH2O/L/sec; Resistance at 5 Hz, expiratory, adjusted mean change from baseline (95% CI): 0.112 (–0.149, 0.373) cmH2O/L/sec; Resistance at 5 Hz, expiratory, adjusted mean difference CHF6523 vs placebo (95% CI): –0.118 (–0.485, 0.248); p=0.513 cmH2O/L/sec; Resistance at 5 Hz, inspiratory, adjusted mean change from baseline (95% CI): 0.216 (0.066, 0.366) cmH2O/L/sec; Resistance at 5 Hz, inspiratory, adjusted mean difference CHF6523 vs placebo (95% CI): 0.057 (–0.150, 0.264); p=0.574 cmH2O/L/sec; Resistance at 5 Hz, total, adjusted mean change from baseline (95% CI): 0.172 (–0.013, 0.356) cmH2O/L/sec; Resistance at 5 Hz, total, adjusted mean difference CHF6523 vs placebo (95% CI): –0.051 (–0.309, 0.207); p=0.686 cmH2O/L/sec; Resistance at 19 Hz, expiratory, adjusted mean change from baseline (95% CI): –0.002 (–0.179, 0.176) cmH2O/L/sec; Resistance at 19 Hz, expiratory, adjusted mean difference CHF6523 vs placebo (95% CI): –0.009 (–0.261, 0.242); p=0.939 cmH2O/L/sec; Resistance at 19 Hz, inspiratory, adjusted mean change from baseline (95% CI): 0.021 (–0.094, 0.136) cmH2O/L/sec; Resistance at 19 Hz, inspiratory, adjusted mean difference CHF6523 vs placebo (95% CI): –0.086 (–0.245, 0.072); p=0.272 cmH2O/L/sec; Resistance at 19 Hz, total, adjusted mean change from baseline (95% CI): 0.016 (–0.125, 0.156) cmH2O/L/sec; Resistance at 19 Hz, total, adjusted mean difference CHF6523 vs placebo (95% CI): –0.040 (–0.236, 0.157); p=0.683 cmH2O/L/sec; Resonance frequency, adjusted mean change from baseline (95% CI): 0.167 (–0.960, 1.293) Hz; Resonance frequency, adjusted mean difference CHF6523 vs placebo (95% CI): 0.106 (–1.434, 1.646); 0.888 Hz; Respiratory rate, adjusted mean change from baseline (95% CI): 0.268 (–0.359, 0.895) breaths/min; Respiratory rate, adjusted mean difference CHF6523 vs placebo (95% CI): 0.784 (–0.078, 1.646); 0.073 breaths/min; Tidal expiratory flow limitation, adjusted mean change from baseline (95% CI): 0.214 (–0.130, 0.557) cmH2O/L/sec; Tidal expiratory flow limitation, adjusted mean difference CHF6523 vs placebo (95% CI): 0.111 (–0.359, 0.582); p=0.630 cmH2O/L/sec; Tidal volume, adjusted mean change from baseline (95% CI): 0.003 (–0.029, 0.036) L; Tidal volume, adjusted mean difference CHF6523 vs placebo (95% CI): 0.011 (–0.034, 0.056); p=0.620 L; Vital capacity, adjusted mean change from baseline (95% CI): –0.083 (–0.243, 0.076) (N=26) L; Vital capacity, adjusted mean difference CHF6523 vs placebo (95% CI): –0.018 (–0.243, 0.207); p=0.871 L; CHF6523–placebo difference in inspiratory flow (p=0.015): 29 mL/s; Mean inspiratory flow, adjusted mean difference CHF6523 vs placebo (95% CI) (p=0.015): 0.029 (0.006, 0.052); p=0.015 L/sec
